According to ChEMBL document CHEMBL5058649, “Data for DCP probe BAY 1816032” (2022):

Experiments:
[1] = biological target: Serine/threonine-protein kinase MRCK alpha (Homo sapiens) (UniProt Q5VT25); experiment: MRCKA DiscoveRx kinase panel; details: Compound concentration 1.0 uM
[2] = biological target: Serine/threonine-protein kinase TAO3 (Homo sapiens) (UniProt Q9H2K8); experiment: TAOK3 DiscoveRx kinase panel; details: Compound concentration 1.0 uM
[3] = biological target: Cyclin-dependent kinase 15 (Homo sapiens) (UniProt Q96Q40); experiment: PFTAIRE2 DiscoveRx kinase panel; details: Compound concentration 1.0 uM
[4] = biological target: Cyclin-dependent kinase-like 3 (Homo sapiens) (UniProt Q8IVW4); experiment: CDKL3 DiscoveRx kinase panel; details: Compound concentration 1.0 uM
[5] = biological target: Casein kinase I isoform alpha (Homo sapiens) (UniProt P48729); experiment: CSNK1A1 DiscoveRx kinase panel; details: Compound concentration 1.0 uM
Casein kinase I isoform alpha (Homo sapiens), sequence (P48729 2-337 limits assumed): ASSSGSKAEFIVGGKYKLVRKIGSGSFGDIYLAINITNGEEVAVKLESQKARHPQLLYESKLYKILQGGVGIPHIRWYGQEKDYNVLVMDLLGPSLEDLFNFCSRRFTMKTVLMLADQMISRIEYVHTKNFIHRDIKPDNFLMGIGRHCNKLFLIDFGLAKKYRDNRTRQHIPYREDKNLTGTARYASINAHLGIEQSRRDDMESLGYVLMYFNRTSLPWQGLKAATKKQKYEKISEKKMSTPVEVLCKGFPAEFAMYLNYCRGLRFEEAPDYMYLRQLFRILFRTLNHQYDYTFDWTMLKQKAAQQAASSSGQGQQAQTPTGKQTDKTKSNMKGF

[6] = biological target: Vasopressin V1a receptor (Homo sapiens) (UniProt P37288); experiment: Vasopressin V1A Eurofins-Panlabs radioligand binding assay; details: Compound concentration 10.0 uM
[7] = biological target: Melanocyte-stimulating hormone receptor (Homo sapiens) (UniProt Q01726); experiment: Melanocortin MC1 Eurofins-Panlabs radioligand binding assay; details: Compound concentration 10.0 uM
Melanocyte-stimulating hormone receptor (Homo sapiens), sequence (Q01726 whole entry, looked up): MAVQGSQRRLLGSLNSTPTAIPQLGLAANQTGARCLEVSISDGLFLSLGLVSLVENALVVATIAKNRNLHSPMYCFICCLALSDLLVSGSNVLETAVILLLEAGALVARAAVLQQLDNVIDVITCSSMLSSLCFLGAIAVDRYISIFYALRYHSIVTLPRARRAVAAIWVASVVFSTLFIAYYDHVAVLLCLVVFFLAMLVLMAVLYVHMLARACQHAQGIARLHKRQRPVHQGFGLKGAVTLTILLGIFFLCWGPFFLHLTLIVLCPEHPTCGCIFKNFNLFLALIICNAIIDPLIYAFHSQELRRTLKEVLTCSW

[8] = biological target: BDNF/NT-3 growth factors receptor (Homo sapiens) (UniProt Q16620); experiment: TRKB DiscoveRx kinase panel; details: Compound concentration 1.0 uM
[9] = biological target: MAP/microtubule affinity-regulating kinase 4 (Homo sapiens) (UniProt Q96L34); experiment: MARK4 DiscoveRx kinase panel; details: Compound concentration 1.0 uM
[10] = biological target: Tyrosine-protein kinase JAK1 (Homo sapiens) (UniProt P23458); experiment: JAK1(JH2domain-pseudokinase) DiscoveRx kinase panel; details: Compound concentration 1.0 uM
Tyrosine-protein kinase JAK1 (Homo sapiens), sequence (P23458 whole entry): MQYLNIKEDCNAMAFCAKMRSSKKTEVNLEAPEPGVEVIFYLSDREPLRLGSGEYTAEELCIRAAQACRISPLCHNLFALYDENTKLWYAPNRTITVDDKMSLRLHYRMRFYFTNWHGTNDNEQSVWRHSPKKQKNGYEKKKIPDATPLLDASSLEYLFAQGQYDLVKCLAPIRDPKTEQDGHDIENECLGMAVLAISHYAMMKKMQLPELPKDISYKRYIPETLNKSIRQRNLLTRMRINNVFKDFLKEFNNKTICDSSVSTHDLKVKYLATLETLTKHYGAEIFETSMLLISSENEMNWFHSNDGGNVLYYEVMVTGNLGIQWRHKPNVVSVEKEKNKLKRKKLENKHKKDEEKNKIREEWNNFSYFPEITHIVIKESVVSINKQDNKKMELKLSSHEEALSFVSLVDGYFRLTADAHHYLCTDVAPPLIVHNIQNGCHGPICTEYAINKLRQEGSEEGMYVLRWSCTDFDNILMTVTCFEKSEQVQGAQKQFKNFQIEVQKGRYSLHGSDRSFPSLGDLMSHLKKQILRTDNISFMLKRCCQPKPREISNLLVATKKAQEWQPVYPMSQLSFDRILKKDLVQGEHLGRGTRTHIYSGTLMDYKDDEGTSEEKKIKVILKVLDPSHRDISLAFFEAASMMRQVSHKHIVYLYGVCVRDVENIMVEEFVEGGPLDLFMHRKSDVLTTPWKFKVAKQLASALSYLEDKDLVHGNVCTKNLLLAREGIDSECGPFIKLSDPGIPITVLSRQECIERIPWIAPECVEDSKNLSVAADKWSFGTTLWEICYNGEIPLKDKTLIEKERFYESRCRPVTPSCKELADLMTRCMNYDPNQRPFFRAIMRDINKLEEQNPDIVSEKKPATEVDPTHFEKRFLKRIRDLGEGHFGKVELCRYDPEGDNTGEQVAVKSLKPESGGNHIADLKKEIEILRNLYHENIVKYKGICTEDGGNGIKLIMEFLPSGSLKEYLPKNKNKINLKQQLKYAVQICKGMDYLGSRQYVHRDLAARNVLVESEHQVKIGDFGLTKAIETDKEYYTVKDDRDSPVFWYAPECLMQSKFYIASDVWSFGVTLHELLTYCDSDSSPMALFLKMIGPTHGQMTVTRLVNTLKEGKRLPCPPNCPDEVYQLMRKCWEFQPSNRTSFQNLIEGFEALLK

[11] = biological target: Serine/threonine-protein kinase DCLK1 (Homo sapiens) (UniProt O15075); experiment: DCAMKL1 DiscoveRx kinase panel; details: Compound concentration 1.0 uM
[12] = biological target: LIM domain kinase 2 (Homo sapiens) (UniProt P53671); experiment: LIMK2 DiscoveRx kinase panel; details: Compound concentration 1.0 uM
[13] = biological target: Tyrosine-protein kinase receptor UFO (Homo sapiens) (UniProt P30530); experiment: AXL DiscoveRx kinase panel; details: Compound concentration 1.0 uM
[14] = biological target: Mitogen-activated protein kinase kinase kinase kinase 5 (Homo sapiens) (UniProt Q9Y4K4); experiment: MAP4K5 DiscoveRx kinase panel; details: Compound concentration 1.0 uM
Mitogen-activated protein kinase kinase kinase kinase 5 (Homo sapiens), sequence (Q9Y4K4 whole entry, looked up): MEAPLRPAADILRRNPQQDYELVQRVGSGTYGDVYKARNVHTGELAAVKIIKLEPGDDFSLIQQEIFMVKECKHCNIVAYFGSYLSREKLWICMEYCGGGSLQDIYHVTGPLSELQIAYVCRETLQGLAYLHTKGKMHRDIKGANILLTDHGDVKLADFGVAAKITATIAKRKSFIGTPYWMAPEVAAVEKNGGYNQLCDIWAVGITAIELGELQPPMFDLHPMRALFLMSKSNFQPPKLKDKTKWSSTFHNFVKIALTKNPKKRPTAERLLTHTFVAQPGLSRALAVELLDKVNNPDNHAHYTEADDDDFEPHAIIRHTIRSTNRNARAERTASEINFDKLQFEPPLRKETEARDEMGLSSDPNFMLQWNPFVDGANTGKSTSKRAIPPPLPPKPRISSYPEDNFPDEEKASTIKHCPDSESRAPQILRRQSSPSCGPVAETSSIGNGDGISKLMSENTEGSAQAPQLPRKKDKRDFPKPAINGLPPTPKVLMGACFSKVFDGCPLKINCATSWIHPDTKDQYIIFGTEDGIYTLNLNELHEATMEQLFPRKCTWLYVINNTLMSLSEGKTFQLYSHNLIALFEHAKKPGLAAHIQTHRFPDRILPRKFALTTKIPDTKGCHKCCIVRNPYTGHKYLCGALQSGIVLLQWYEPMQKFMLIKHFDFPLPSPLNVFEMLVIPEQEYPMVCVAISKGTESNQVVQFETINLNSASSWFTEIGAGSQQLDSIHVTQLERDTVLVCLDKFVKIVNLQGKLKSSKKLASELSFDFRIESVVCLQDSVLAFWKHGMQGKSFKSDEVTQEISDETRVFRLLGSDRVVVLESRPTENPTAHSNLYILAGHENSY

[15] = biological target: Membrane-associated tyrosine- and threonine-specific cdc2-inhibitory kinase (Homo sapiens) (UniProt Q99640); experiment: PKMYT1 DiscoveRx kinase panel; details: Compound concentration 1.0 uM
[16] = biological target: Serine/threonine-protein kinase PAK 5 (Homo sapiens) (UniProt Q9P286); experiment: PAK7 DiscoveRx kinase panel; details: Compound concentration 1.0 uM
[17] = biological target: Receptor-type tyrosine-protein kinase FLT3 (Homo sapiens) (UniProt P36888); experiment: FLT3 DiscoveRx kinase panel; details: Compound concentration 1.0 uM
[18] = biological target: Non-receptor tyrosine-protein kinase TYK2 (Homo sapiens) (UniProt P29597); experiment: TYK2(JH2domain-pseudokinase) DiscoveRx kinase panel; details: Compound concentration 1.0 uM
[19] = biological target: Sodium-dependent dopamine transporter (Homo sapiens, UniProt Q01959); experiment: GPCRScan assay: inhibition of DAT; parameters: radioligand conc. used [nm] 3.6 – 16.0, parental cells stable HEK
Sodium-dependent dopamine transporter, sequence (Q01959 whole entry): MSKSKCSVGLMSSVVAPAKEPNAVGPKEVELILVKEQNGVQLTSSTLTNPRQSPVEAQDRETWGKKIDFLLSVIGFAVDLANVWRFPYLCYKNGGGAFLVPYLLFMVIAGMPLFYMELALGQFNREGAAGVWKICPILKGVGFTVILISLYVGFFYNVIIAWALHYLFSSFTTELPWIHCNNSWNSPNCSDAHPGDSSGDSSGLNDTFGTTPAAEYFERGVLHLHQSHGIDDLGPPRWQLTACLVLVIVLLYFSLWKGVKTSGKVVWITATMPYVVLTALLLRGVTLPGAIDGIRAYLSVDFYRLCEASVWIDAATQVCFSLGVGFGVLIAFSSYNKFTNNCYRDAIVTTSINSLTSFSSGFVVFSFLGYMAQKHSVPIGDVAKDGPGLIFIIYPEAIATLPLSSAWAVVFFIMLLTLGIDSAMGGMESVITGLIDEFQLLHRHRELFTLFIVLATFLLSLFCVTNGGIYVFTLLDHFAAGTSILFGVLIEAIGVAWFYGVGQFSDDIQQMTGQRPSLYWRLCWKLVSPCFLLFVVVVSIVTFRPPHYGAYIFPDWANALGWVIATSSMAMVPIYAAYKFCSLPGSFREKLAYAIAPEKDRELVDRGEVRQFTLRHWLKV

[20] = biological target: Serine/threonine-protein kinase D2 (Homo sapiens) (UniProt Q9BZL6); experiment: PRKD2 DiscoveRx kinase panel; details: Compound concentration 1.0 uM
[21] = biological target: Serine/threonine-protein kinase haspin (Homo sapiens) (UniProt Q8TF76); experiment: HASPIN DiscoveRx kinase panel; details: Compound concentration 1.0 uM
hERG (KCNH2) = hERG (KCNH2) (Homo sapiens, UniProt Q12809); experiment: Inhibition of Potassium Channel hERG at 10 µM in the Eurofins-Panlabs radioligand binding assay (Eurofins_assay_265900); parameters: ligand concentration 1.5 nM, non-specific ligand with concentration Astemizole, incubation time 60 min, incubation temperature 25 °C; details: HEK-293 cells expressing human recombinant hERG, probe [3H] Astemizole, compound concentration 10 uM
[22] = biological target: STE20-like serine/threonine-protein kinase (Homo sapiens) (UniProt Q9H2G2); experiment: SLK DiscoveRx kinase panel; details: Compound concentration 1.0 uM
[23] = biological target: Receptor tyrosine-protein kinase erbB-2 (Homo sapiens) (UniProt P04626); experiment: ERBB2 DiscoveRx kinase panel; details: Compound concentration 1.0 uM
[24] = biological target: BMP-2-inducible protein kinase (Homo sapiens) (UniProt Q9NSY1); experiment: BIKE DiscoveRx kinase panel; details: Compound concentration 1.0 uM
[25] = biological target: Estrogen receptor (Homo sapiens) (UniProt P03372); details: Compound concentration 10.0 uM
[26] = biological target: Phosphatidylinositol 4,5-bisphosphate 3-kinase catalytic subunit delta isoform (Homo sapiens) (UniProt O00329); experiment: PIK3CD DiscoveRx kinase panel; details: Compound concentration 1.0 uM
[27] = biological target: Substance-P receptor (Homo sapiens) (UniProt P25103); experiment: Inhibition of Tachykinin NK1 at 10 µM in the Eurofins-Panlabs radioligand binding assay (Eurofins_assay_255520); parameters: ligand concentration 0.8 nM; details: Compound concentration 10.0 uM
[28] = biological target: Dual specificity protein kinase CLK3 (Homo sapiens) (UniProt P49761); experiment: CLK3 DiscoveRx kinase panel; details: Compound concentration 1.0 uM
[29] = biological target: Tyrosine-protein kinase JAK1 (Homo sapiens) (UniProt P23458); experiment: JAK1(JH1domain-catalytic) DiscoveRx kinase panel; details: Compound concentration 1.0 uM
[30] = biological target: Sodium-dependent serotonin transporter (Homo sapiens) (UniProt P31645); experiment: Transporter, Serotonin (5- Hydroxytryptamine) (SERT) Eurofins-Panlabs radioligand binding assay; details: Compound concentration 10.0 uM
[31] = biological target: Tyrosine-protein kinase BTK (Homo sapiens) (UniProt Q06187); experiment: BTK DiscoveRx kinase panel; details: Compound concentration 1.0 uM
[32] = biological target: Inhibitor of nuclear factor kappa-B kinase subunit alpha (Homo sapiens) (UniProt O15111); experiment: IKK-alpha DiscoveRx kinase panel; details: Compound concentration 1.0 uM
Inhibitor of nuclear factor kappa-B kinase subunit alpha (Homo sapiens), sequence (O15111 whole entry): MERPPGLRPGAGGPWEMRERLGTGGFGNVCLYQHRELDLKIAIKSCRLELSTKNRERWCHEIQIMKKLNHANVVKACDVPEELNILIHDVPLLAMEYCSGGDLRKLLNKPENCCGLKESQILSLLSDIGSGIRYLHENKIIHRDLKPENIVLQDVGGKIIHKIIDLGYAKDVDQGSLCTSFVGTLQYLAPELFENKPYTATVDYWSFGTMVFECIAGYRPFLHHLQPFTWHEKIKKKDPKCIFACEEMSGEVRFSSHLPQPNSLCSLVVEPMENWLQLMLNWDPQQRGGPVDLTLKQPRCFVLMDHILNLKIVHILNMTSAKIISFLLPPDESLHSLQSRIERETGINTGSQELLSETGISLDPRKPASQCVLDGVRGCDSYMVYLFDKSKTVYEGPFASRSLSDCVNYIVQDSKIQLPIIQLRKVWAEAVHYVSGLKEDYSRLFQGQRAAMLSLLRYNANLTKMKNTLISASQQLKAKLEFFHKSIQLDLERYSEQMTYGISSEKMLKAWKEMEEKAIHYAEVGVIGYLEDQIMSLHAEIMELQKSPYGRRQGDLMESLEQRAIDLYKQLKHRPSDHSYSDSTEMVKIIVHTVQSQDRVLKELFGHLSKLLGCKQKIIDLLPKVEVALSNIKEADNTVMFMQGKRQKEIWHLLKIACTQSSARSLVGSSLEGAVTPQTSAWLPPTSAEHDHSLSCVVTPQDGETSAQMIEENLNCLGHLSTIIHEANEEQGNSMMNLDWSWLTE

[33] = biological target: Ribosomal protein S6 kinase alpha-1 (Homo sapiens) (UniProt Q15418); experiment: RSK1(Kin.Dom.1-N-terminal) DiscoveRx kinase panel; details: Compound concentration 1.0 uM
[34] = biological target: Tyrosine-protein kinase Srms (Homo sapiens) (UniProt Q9H3Y6); experiment: SRMS DiscoveRx kinase panel; details: Compound concentration 1.0 uM
[35] = biological target: Atypical kinase COQ8B, mitochondrial (Homo sapiens) (UniProt Q96D53); experiment: ADCK4 DiscoveRx kinase panel; details: Compound concentration 1.0 uM
Atypical kinase COQ8B, mitochondrial (Homo sapiens), sequence (Q96D53 whole entry): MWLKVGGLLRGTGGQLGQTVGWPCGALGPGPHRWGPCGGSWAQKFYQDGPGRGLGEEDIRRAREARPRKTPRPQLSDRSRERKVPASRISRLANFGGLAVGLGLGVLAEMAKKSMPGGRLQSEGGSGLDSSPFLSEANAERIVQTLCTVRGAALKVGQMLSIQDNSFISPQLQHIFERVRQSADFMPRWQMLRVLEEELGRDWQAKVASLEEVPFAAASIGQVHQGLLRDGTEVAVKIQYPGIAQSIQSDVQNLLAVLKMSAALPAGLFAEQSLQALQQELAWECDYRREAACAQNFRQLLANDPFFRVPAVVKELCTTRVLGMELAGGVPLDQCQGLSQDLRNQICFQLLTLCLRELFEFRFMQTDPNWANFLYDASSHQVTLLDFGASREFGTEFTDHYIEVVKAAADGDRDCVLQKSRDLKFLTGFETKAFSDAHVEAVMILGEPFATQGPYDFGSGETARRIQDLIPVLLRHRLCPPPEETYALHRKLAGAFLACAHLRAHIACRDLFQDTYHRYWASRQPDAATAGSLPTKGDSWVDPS

[36] = biological target: Mitogen-activated protein kinase kinase kinase 13 (Homo sapiens) (UniProt O43283); experiment: LZK DiscoveRx kinase panel; details: Compound concentration 1.0 uM
[37] = biological target: Serine/threonine-protein kinase BRSK2 (Homo sapiens) (UniProt Q8IWQ3); experiment: BRSK2 DiscoveRx kinase panel; details: Compound concentration 1.0 uM
[38] = biological target: Serine/threonine-protein kinase ULK1 (Homo sapiens) (UniProt O75385); experiment: ULK1 DiscoveRx kinase panel; details: Compound concentration 1.0 uM
[39] = biological target: Dual specificity tyrosine-phosphorylation-regulated kinase 1A (Homo sapiens) (UniProt Q13627); experiment: DYRK1A DiscoveRx kinase panel; details: Compound concentration 1.0 uM
[40] = biological target: Serine/threonine-protein kinase PLK3 (Homo sapiens) (UniProt Q9H4B4); experiment: PLK3 DiscoveRx kinase panel; details: Compound concentration 1.0 uM
[41] = biological target: cAMP-dependent protein kinase catalytic subunit PRKX (Homo sapiens) (UniProt P51817); experiment: PRKX DiscoveRx kinase panel; details: Compound concentration 1.0 uM
[42] = biological target: RAC-alpha serine/threonine-protein kinase (Homo sapiens) (UniProt P31749); experiment: AKT1 DiscoveRx kinase panel; details: Compound concentration 1.0 uM
RAC-alpha serine/threonine-protein kinase (Homo sapiens), sequence (P31749 whole entry): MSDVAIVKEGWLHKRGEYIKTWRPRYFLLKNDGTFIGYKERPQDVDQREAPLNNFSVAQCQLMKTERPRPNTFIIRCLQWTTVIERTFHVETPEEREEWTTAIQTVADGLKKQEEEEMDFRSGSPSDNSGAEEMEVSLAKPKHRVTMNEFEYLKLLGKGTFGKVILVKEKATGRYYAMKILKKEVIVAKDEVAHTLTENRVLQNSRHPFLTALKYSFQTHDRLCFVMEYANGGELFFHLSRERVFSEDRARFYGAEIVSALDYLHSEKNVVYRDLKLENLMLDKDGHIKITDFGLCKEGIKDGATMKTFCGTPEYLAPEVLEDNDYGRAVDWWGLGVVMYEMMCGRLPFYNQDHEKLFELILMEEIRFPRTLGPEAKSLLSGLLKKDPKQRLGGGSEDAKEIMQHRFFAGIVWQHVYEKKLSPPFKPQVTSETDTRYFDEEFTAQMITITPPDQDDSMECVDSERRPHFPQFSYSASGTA

[43] = biological target: Cytoplasmic tyrosine-protein kinase BMX (Homo sapiens) (UniProt P51813); experiment: BMX DiscoveRx kinase panel; details: Compound concentration 1.0 uM
[44] = biological target: Serine/threonine-protein kinase WNK3 (Homo sapiens) (UniProt Q9BYP7); experiment: WNK3 DiscoveRx kinase panel; details: Compound concentration 1.0 uM
[45] = biological target: Cannabinoid receptor 2 (Homo sapiens) (UniProt P34972); details: Compound concentration 10.0 uM
[46] = biological target: Glycogen synthase kinase-3 beta (Homo sapiens) (UniProt P49841); experiment: GSK3B DiscoveRx kinase panel; details: Compound concentration 1.0 uM
[47] = biological target: Serine/threonine-protein kinase 35 (Homo sapiens) (UniProt Q8TDR2); experiment: STK35 DiscoveRx kinase panel; details: Compound concentration 1.0 uM

COc1cnccc1Nc1nc(-c2nn(Cc3c(F)cc(OCCO)cc3F)c3ccccc23)ncc1OC
residual activity [1]: 72%
residual activity [2]: 100%
residual activity [3]: 96%
residual activity [4]: 89%
residual activity [5]: 99%
inhibition [6]: 11%
inhibition [7]: 4%
residual activity [8]: 100%
residual activity [9]: 100%
residual activity [10]: 100%
residual activity [11]: 100%
residual activity [12]: 97%
residual activity [13]: 47%
residual activity [14]: 81%
residual activity [15]: 100%
residual activity [16]: 85%
residual activity [17]: 88%
residual activity [18]: 100%
pKi [19]: < 5
Ki ([19]; read-out: Ki): > 10 µM
residual activity [20]: 100%
residual activity [21]: 100%
inhibition at 60 min, 10 µM (hERG (KCNH2)): 23% (not active)
residual activity [22]: 100%
residual activity [23]: 100%
residual activity [24]: 74%
inhibition [25]: 10%
residual activity [26]: 100%
inhibition [27]: 19%
residual activity [28]: 100%
residual activity [29]: 90%
inhibition [30]: 4%
residual activity [31]: 100%
residual activity [32]: 100%
residual activity [33]: 80%
residual activity [34]: 100%
residual activity [35]: 99%
residual activity [36]: 53%
residual activity [37]: 83%
residual activity [38]: 90%
residual activity [39]: 96%
residual activity [40]: 100%
residual activity [41]: 100%
residual activity [42]: 100%
residual activity [43]: 100%
residual activity [44]: 87%
inhibition [45]: 31%
residual activity [46]: 100%
residual activity [47]: 99%
